# Results from US8906826B2, “Herbicidal compositions comprising 4-amino-3-chloro-5-fluoro-6-(4-chloro-2-fluoro-3-methoxyphenyl) pyridine-2-carboxylic acid or a derivative thereof and imidazolinones” (Dow AgroSciences, LLC, priority 2012, dated 2014).
# Several values for one entry are separate records, joined by “and”; a condition that tells them apart may be missing. Identical values can stand only once.
# Columns and labels:
# Test in all cases: Postemergence foliar-applied, direct seeded rice weeds (Example I)
# [1] = tested on: CYPIR; format: in vivo, Cyperus iria L.
# Excerpt: (§1) Seeds or nutlets of the desired test plant species were planted in a soil matrix prepared by mixing a loam or sandy loam soil (e.g., 28.6 percent silt, 18.8 percent clay, and 52.6 percent sand, with a pH of about 5.8 and an organic matter content of about 1.8 percent) and calcareous grit in an 80 to 20 ratio. The soil matrix was contained in plastic pots with a volume of 1 quart and a surface area of 83.6 cm^2. When required to ensure good germination and healthy plants, a fungicide treatment and/or other chemical or physical treatment was applied. The plants were grown for 8-22 days in a greenhouse with an approximate 14 h photoperiod which was maintained at about 29° C. during the day and 26° C. during the night. Nutrients (Peters Excel® 15-5-15 5-Ca 2-Mg and iron chelate) were applied in the irrigation solution as needed and water was added on a regular basis. Supplemental lighting was provided with overhead metal halide 1000-Watt lamps as necessary. The plants were employed for testing when they reached the first through fourth true leaf stage.
# (§2) Treatments consisted of the acid or esters of 4-amino-3-chloro-5-fluoro-6-(4-chloro-2-fluoro-3-methoxy-phenyl)pyridine-2-carboxylic acid (Compound A), each formulated as an SC (suspension concentrate), and various herbicidal components alone and in combination. Forms of compound A were applied on an acid equivalent basis.
# (§3) Other herbicidal components were applied on an acid equivalent basis and include acetolactate synthase (ALS)-inhibiting herbicides (imidazolinone chemical class) imazethapyr ammonium salt formulated as Newpath®, imazamox ammonium salt formulated as Beyond®, imazapic ammonium salt formulated as Plateau®, imazapyr isopropylamine salt formulated as Arsenal®, imazamethabenz-methyl (technical material) and imazaquin isopropylamine salt formulated as Scepter®/Imagine®.
# (§4) Treatment requirements were calculated based upon the rates being tested, the concentration of active ingredient or acid equivalent in the formulation, and a 12 mL application volume at a rate of 187 L/ha.
# (§5) For treatments comprised of formulated compounds, measured amounts of compounds were placed individually in 25 mL glass vials and diluted in a volume of 1.25% (v/v) Agri-Dex® crop oil concentrated to obtain 12× stock solutions. […] Application solutions were prepared by adding an appropriate amount of each stock solution (e.g., 1 mL) and diluted to the appropriate final concentrations with the addition of 10 mL of an aqueous mixture of 1.25% (v/v) crop oil concentrate so that the final spray solutions contained 1.25+/−0.05% (v/v) crop oil concentrate.
# (§6) For treatments comprised of technical compounds, weighed amounts can be placed individually in 25 mL glass vials and dissolved in a volume of 97:3 v/v acetone/DMSO to obtain 12× stock solutions. […] Application solutions can be prepared by adding an appropriate amount of each stock solution (e.g., 1 mL) and diluted to the appropriate final concentrations with the addition of 10 mL of an aqueous mixture of 1.5% (v/v) crop oil concentrate so that the final spray solutions contain 1.25% (v/v) crop oil concentrate. When technical materials are used, the concentrated stock solutions can be added to the spray solutions so that the final acetone and DMSO concentrations of the application solutions are 16.2% and 0.5%, respectively.
# (§7) For treatments comprised of formulated and technical compounds, weighed amounts of the technical materials were placed individually in 25 mL glass vials and dissolved in a volume of 97:3 v/v acetone/DMSO to obtain 12× stock solutions, and measured amounts of the formulated compounds were placed individually in 25 mL glass vials and diluted in a volume of 1.5% (v/v) crop oil concentrate or water to obtain 12× stock solutions. […]
# [2] = tested on: ECHCG; format: in vivo, Echinochloa crusgalli (L.) Beauv.
# Excerpt: as §1, §2, §3, §4, §5, §6, §7
# [3] = tested on: LEFCH; format: in vivo, Leptochloa chinensis (L.) Nees
# Excerpt: as §1, §2, §3, §4
# as §5, with “concentrate. […]” for “concentrate.”
# For treatments comprised of formulated and technical compounds, weighed amounts of the technical materials were placed individually in 25 mL glass vials and dissolved in a volume of 97:3 v/v acetone/DMSO to obtain 12× stock solutions, and measured amounts of the formulated compounds were placed individually in 25 mL glass vials and diluted in a volume of 1.5% (v/v) crop oil concentrate or water to obtain 12× stock solutions. […] Application solutions were prepared by adding an appropriate amount of each stock solution (e.g., 1 mL) and diluted to the appropriate final concentrations with the addition of an appropriate amount of an aqueous mixture of 1.5% (v/v) crop oil concentrate so that the final spray solutions contained 1.25% (v/v) crop oil concentrate. As required, additional water and/or 97:3 v/v acetone/DMSO was added to individual application solutions so that the final acetone and DMSO concentrations of the application solutions being compared were 8.1% and 0.25%, respectively.
# All stock solutions and applications solutions were visually inspected for compound compatibility prior to application. […]
# [4] = tested on: DIGSA; format: in vivo, Digitaria sanguinalis (L.) Scop.
# Excerpt: as §1, §2, §3, §4
# For treatments comprised of formulated compounds, measured amounts of compounds were placed individually in 25 mL glass vials and diluted in a volume of 1.25% (v/v) Agri-Dex® crop oil concentrated to obtain 12× stock solutions. […]
# as §7
# [5] = Compound A Benzyl Ester 8.75 gae/ha
smiles,measurement,setting,value
"Cc1cnc(C2=NC(C)(C(C)C)C(=O)N2)c(C(=O)O)c1.N (racemic) [Imazapic ammonium, ammonium (±)-2-[4,5-dihydro-4-methyl-4-(1-methylethyl)-5-oxo-1H-imidazol-2-yl]-5-methyl-3-pyridinecarboxylic acid]",Visual Weed Control (%) - 22 DAA CYPIR Obs,[1]; Imazapic ammonium 7 gae/ha,20%
same,Visual Weed Control (%) - 25 DAA ECHCG Obs,[2]; Imazapic ammonium 4.38 gae/ha,20%
same,Visual Weed Control (%) - 25 DAA ECHCG Obs,[2]; Imazapic ammonium 8.75 gae/ha,40%
same,Visual Weed Control (%) - 25 DAA LEFCH Obs,[3]; Imazapic ammonium 17.5 gae/ha,50%
same,Visual Weed Control (%) - 20 DAA LEFCH Obs,[3]; Imazapic ammonium 35 gae/ha,85%
"COc1c(Cl)ccc(-c2nc(C(=O)O)c(Cl)c(N)c2F)c1F [Compound A Acid, 4-amino-3-chloro-6-(4-chloro-2-fluoro-3-methoxyphenyl)-5-fluoropyridine-2-carboxylic acid]",Visual Weed Control (%) - 25 DAA ECHCG Obs,[2]; Compound A Acid 4.38 gae/ha,20%
same,Visual Weed Control (%) - 25 DAA ECHCG Obs,[2]; Compound A Acid 8.75 gae/ha,50%
same,Visual Weed Control (%) - 20 DAA DIGSA Obs,[4]; Compound A Acid 19.3 gae/ha,13%
same,Visual Weed Control (%) - 25 DAA LEFCH Obs,[3]; Compound A Acid 4.38 gae/ha,0%
same,Visual Weed Control (%) - 25 DAA LEFCH Obs,[3]; Compound A Acid 8.75 gae/ha,10%
same,Visual Weed Control (%) - 25 DAA LEFCH Obs,[3]; Compound A Acid 17.5 gae/ha,45%
same,Visual Weed Control (%) - 20 DAA LEFCH Obs,[3]; Compound A Acid 19.4 gae/ha,5%
"CCc1cnc(C2=NC(C)(C(C)C)C(=O)N2)c(C(=O)O)c1.N (racemic) [Imazethapyr ammonium, ammonium (±)-2-[4,5-dihydro-4-methyl-4-(1-methylethyl)-5-oxo-1H-imidazol-2-yl]-5-ethyl-3-pyridinecarboxylate]",Visual Weed Control (%) - 20 DAA DIGSA Obs,[4]; Imazethapyr ammonium 70 gae/ha,80%
same,Visual Weed Control (%) - 25 DAA LEFCH Obs,[3]; Imazethapyr ammonium 8.75 gae/ha,20%
"COc1c(Cl)ccc(-c2nc(C(=O)OCc3ccccc3)c(Cl)c(N)c2F)c1F [Compound A Benzyl Ester, benzyl ester of 4-amino-3-chloro-5-fluoro-6-(4-chloro-2-fluoro-3-methoxy-phenyl)pyridine-2-carboxylic acid]",Visual Weed Control (%) - 22 DAA CYPIR Obs,[1]; Compound A Benzyl Ester 8 gae/ha,20% and 30%
same,Visual Weed Control (%) - 25 DAA CYPIR Obs,[1]; [5],75%
same,Visual Weed Control (%) - 22 DAA CYPIR Obs,[1]; Compound A Benzyl Ester 16 gae/ha,85%
same,Visual Weed Control (%) - 25 DAA LEFCH Obs,[3]; [5],70%
same,Visual Weed Control (%) - 25 DAA LEFCH Obs,[3]; Compound A Benzyl Ester 17.5 gae/ha,70%
"COCc1cnc(C2=NC(C)(C(C)C)C(=O)N2)c(C(=O)O)c1.N (racemic) [Imazamox ammonium, ammonium (±)-2-[4,5-dihydro-4-methyl-4-(1-methylethyl)-5-oxo-1H-imidazol-2-yl]-5-(methoxymethyl)-3-pyridinecarboxylate]",Visual Weed Control (%) - 25 DAA CYPIR Obs,[1]; Imazamox ammonium 11.2 gae/ha,20%
same,Visual Weed Control (%) - 25 DAA CYPIR Obs,[1]; Imazamox ammonium 22.4 gae/ha,70%
same,Visual Weed Control (%) - 25 DAA ECHCG Obs,[2]; Imazamox ammonium 5.6 gae/ha,15%
same,Visual Weed Control (%) - 25 DAA ECHCG Obs,[2]; Imazamox ammonium 11.2 gae/ha,20%
same,Visual Weed Control (%) - 25 DAA ECHCG Obs,[2]; Imazamox ammonium 22.4 gae/ha,60%
same,Visual Weed Control (%) - 20 DAA DIGSA Obs,[4]; Imazamox ammonium 44.8 gae/ha,60%
same,Visual Weed Control (%) - 25 DAA LEFCH Obs,[3]; Imazamox ammonium 11.2 gae/ha,20%
